According to patent publication US8163929B2, “Dihydropyridone amides as P2X7 modulators” (Roche Palo Alto LLC, priority 2008, dated 2012):

Biological target: T1, P2X7 (UniProt Q99572)
T1 sequence (Q99572 1-595): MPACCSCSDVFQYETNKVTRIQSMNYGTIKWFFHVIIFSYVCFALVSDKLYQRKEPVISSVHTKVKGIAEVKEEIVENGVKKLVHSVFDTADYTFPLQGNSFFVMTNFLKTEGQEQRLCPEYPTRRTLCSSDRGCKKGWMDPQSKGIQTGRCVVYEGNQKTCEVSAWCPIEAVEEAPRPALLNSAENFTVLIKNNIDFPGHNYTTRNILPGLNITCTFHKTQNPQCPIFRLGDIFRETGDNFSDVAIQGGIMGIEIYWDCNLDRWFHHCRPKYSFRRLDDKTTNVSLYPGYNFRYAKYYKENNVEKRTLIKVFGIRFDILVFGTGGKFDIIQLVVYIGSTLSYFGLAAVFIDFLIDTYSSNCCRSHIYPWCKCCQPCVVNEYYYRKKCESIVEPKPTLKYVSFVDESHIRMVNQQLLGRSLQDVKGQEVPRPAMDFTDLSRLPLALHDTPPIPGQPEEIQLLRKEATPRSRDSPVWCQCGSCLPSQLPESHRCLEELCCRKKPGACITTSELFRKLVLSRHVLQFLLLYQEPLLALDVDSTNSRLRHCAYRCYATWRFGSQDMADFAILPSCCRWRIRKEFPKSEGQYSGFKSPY
Test: P2X7 activity of Table 1
Format: cell-based
Conditions: pIC50 values for P2X7
How it was run: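 FLIPR calcium flux with fluo-3 in 1321N1 cells expressing human P2X7 and HEK293 cells expressing rat P2X7, in HBSS with 2 mM CaCl2 and 2.5 mM probenecid. Antagonist pre-incubated 20 min at room temperature, then BzATP added (100 μM human, 5 μM rat). Peak response over 5 min normalised to 5 μM ionomycin.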

Question: With `COC[C@@H](O)Cn1nc(-c2ccc(C)c(NC(=O)C3=CNC(=O)C[C@H]3c3ccc(F)cc3)c2)cc1C` [Compound 91, (S)-4-(4-Fluoro-phenyl)-6-oxo-1,4,5,6-tetrahydro-pyridine-3-carboxylic acid {5-[1-((S)-2-hydroxy-3-methoxy-propyl)-5-methyl-1H-pyrazol-3-yl]-2-methyl-phenyl}-amide] as the compound, how does the pIC50 read?
Answer: 7.15

Question: How did the pIC50 turn out when `COC[C@@H](O)Cn1nc(-c2ccc(C)c(NC(=O)C3=CN(C)C(=O)C[C@H]3c3ccc(F)cc3)c2)cc1C` [Compound 92, (S)-4-(4-Fluoro-phenyl)-1-methyl-6-oxo-1,4,5,6-tetrahydro-pyridine-3-carboxylic acid {5-[1-((S)-2-hydroxy-3-methoxy-propyl)-5-methyl-1H-pyrazol-3-yl]-2-methyl-phenyl}-amide] was run?
Answer: 6.615

Question: `Cc1ccc(-c2ccnn(CCO)c2=O)cc1NC(=O)C1=CN(C)C(=O)C[C@H]1c1cccc(F)c1` [Compound 93, (S)-4-(3-Fluoro-phenyl)-1-methyl-6-oxo-1,4,5,6-tetrahydro-pyridine-3-carboxylic acid {5-[2-(2-hydroxy-ethyl)-3-oxo-2,3-dihydro-pyridazin-4-yl]-2-methyl-phenyl}-amide] was tested. Which pIC50 did it give?
Answer: 7.5

Question: Which pIC50 does the source give for `Cc1ccc(-c2ccnn(CCO)c2=O)cc1NC(=O)C1=CN(C)C(=O)C[C@H]1c1ccc(F)cc1` [Compound 94, (S)-4-(4-Fluoro-phenyl)-1-methyl-6-oxo-1,4,5,6-tetrahydro-pyridine-3-carboxylic acid {5-[2-(2-hydroxy-ethyl)-3-oxo-2,3-dihydro-pyridazin-4-yl]-2-methyl-phenyl}-amide] here?
Answer: 7.8

Question: With `Cc1ccc(-c2cc(C)n(CCO)n2)cc1NC(=O)C1=CNC(=O)CC1c1cc(F)cc(F)c1` (stereo not shown) [Compound 95, 4-(3,5-Difluoro-phenyl)-6-oxo-1,4,5,6-tetrahydro-pyridine-3-carboxylic acid {5-[1-(2-hydroxy-ethyl)-5-methyl-1H-pyrazol-3-yl]-2-methyl-phenyl}-amide] as the compound, how does the pIC50 read?
Answer: 7.85

Question: How did the pIC50 turn out when `Cc1ccc(-c2ccc(C)c(NC(=O)C3=CNC(=O)C[C@H]3c3cccc(F)c3)c2)nn1` [Compound 96, (S)-4-(3-Fluoro-phenyl)-6-oxo-1,4,5,6-tetrahydro-pyridine-3-carboxylic acid [2-methyl-5-(6-methyl-pyridazin-3-yl)-phenyl]-amide] was run?
Answer: 7.48

Question: `Cc1ccc(-c2ncccn2)cc1NC(=O)C1=CNC(=O)C[C@H]1c1cccc(F)c1` [Compound 97, (S)-4-(3-Fluoro-phenyl)-6-oxo-1,4,5,6-tetrahydro-pyridine-3-carboxylic acid (2-methyl-5-pyrimidin-2-yl-phenyl)-amide] was tested. Which pIC50 did it give?
Answer: 7.09

Question: Which pIC50 does the source give for `Cc1ccc(-c2ccc(=O)n(C)n2)cc1NC(=O)C1=CNC(=O)C[C@H]1c1ccc(F)cc1` [Compound 98, (S)-4-(4-Fluoro-phenyl)-6-oxo-1,4,5,6-tetrahydro-pyridine-3-carboxylic acid [2-methyl-5-(1-methyl-6-oxo-1,6-dihydro-pyridazin-3-yl)-phenyl]-amide] here?
Answer: 6.52

Question: How did the pIC50 turn out when `Cc1ccc(-c2ccc(=O)[nH]n2)cc1NC(=O)C1=CNC(=O)C[C@H]1c1ccc(F)cc1` [Compound 99, (S)-4-(4-Fluoro-phenyl)-6-oxo-1,4,5,6-tetrahydro-pyridine-3-carboxylic acid [2-methyl-5-(6-oxo-1,6-dihydro-pyridazin-3-yl)-phenyl]-amide] was run?
Answer: 7.515

Question: `Cc1ccc(-n2ncc(=O)n(CCO)c2=O)cc1NC(=O)C1=CN(C)C(=O)C[C@H]1c1ccc(F)cc1` [Compound 100, (S)-4-(4-Fluoro-phenyl)-1-methyl-6-oxo-1,4,5,6-tetrahydro-pyridine-3-carboxylic acid {5-[4-(2-hydroxy-ethyl)-3,5-dioxo-4,5-dihydro-3H-[1,2,4]triazin-2-yl]-2-methyl-phenyl}-amide] was tested. Which pIC50 did it give?
Answer: 7.5

Question: With `Cc1ccc(-n2ncc(=O)n(CCO)c2=O)cc1NC(=O)C1=CN(C)C(=O)C[C@H]1c1cccc(F)c1` [Compound 101, (S)-4-(3-Fluoro-phenyl)-1-methyl-6-oxo-1,4,5,6-tetrahydro-pyridine-3-carboxylic acid {5-[4-(2-hydroxy-ethyl)-3,5-dioxo-4,5-dihydro-3H-[1,2,4]triazin-2-yl]-2-methyl-phenyl}-amide] as the compound, how does the pIC50 read?
Answer: 7.57

Question: For `Cc1ccc(-c2cc(C(F)(F)F)[nH]n2)cc1NC(=O)C1=CNC(=O)C[C@H]1c1ccc(F)cc1` [Compound 102, (S)-4-(4-Fluoro-phenyl)-6-oxo-1,4,5,6-tetrahydro-pyridine-3-carboxylic acid [2-methyl-5-(5-trifluoromethyl-1H-pyrazol-3-yl)-phenyl]-amide], which pIC50 is on record?
Answer: 5.77

Question: How did the pIC50 turn out when `COC[C@@H](O)Cn1nc(-c2ccc(C)c(NC(=O)C3=CN(C)C(=O)C[C@H]3c3cccc(F)c3)c2)cc1C` [Compound 103, (S)-4-(3-Fluoro-phenyl)-1-methyl-6-oxo-1,4,5,6-tetrahydro-pyridine-3-carboxylic acid {5-[1-((S)-2-hydroxy-3-methoxy-propyl)-5-methyl-1H-pyrazol-3-yl]-2-methyl-phenyl}-amide] was run?
Answer: 7.1

Question: With `COC[C@H](O)Cn1nccc(-c2ccc(C)c(NC(=O)C3=CN(C)C(=O)C[C@H]3c3cccc(F)c3)c2)c1=O` [Compound 104, (S)-4-(3-Fluoro-phenyl)-1-methyl-6-oxo-1,4,5,6-tetrahydro-pyridine-3-carboxylic acid {5-[2-((R)-2-hydroxy-3-methoxy-propyl)-3-oxo-2,3-dihydro-pyridazin-4-yl]-2-methyl-phenyl}-amide] as the compound, how does the pIC50 read?
Answer: 7.8

Question: For `COC[C@H](O)Cn1nccc(-c2ccc(C)c(NC(=O)C3=CN(C)C(=O)C[C@H]3c3ccc(F)cc3)c2)c1=O` [Compound 105, (S)-4-(4-Fluoro-phenyl)-1-methyl-6-oxo-1,4,5,6-tetrahydro-pyridine-3-carboxylic acid {5-[2-((R)-2-hydroxy-3-methoxy-propyl)-3-oxo-2,3-dihydro-pyridazin-4-yl]-2-methyl-phenyl}-amide], which pIC50 is on record?
Answer: 7.57

Question: For `COC[C@H](O)Cn1nccc(-c2ccc(C)c(NC(=O)C3=CNC(=O)C[C@H]3c3ccc(F)cc3)c2)c1=O` [Compound 106, (S)-4-(4-Fluoro-phenyl)-6-oxo-1,4,5,6-tetrahydro-pyridine-3-carboxylic acid {5-[2-((R)-2-hydroxy-3-methoxy-propyl)-3-oxo-2,3-dihydro-pyridazin-4-yl]-2-methyl-phenyl}-amide], which pIC50 is on record?
Answer: 7.885

Question: `Cc1ccc(-n2ncc(=O)[nH]c2=O)cc1NC(=O)C1=CN(C)C(=O)C[C@H]1c1ccc(F)cc1` [Compound 107, (S)-4-(4-Fluoro-phenyl)-1-methyl-6-oxo-1,4,5,6-tetrahydro-pyridine-3-carboxylic acid [5-(3,5-dioxo-4,5-dihydro-3H-[1,2,4]triazin-2-yl)-2-methyl-phenyl]-amide] was tested. Which pIC50 did it give?
Answer: 6.81

Question: For `Cc1ccc(-n2ncc(=O)[nH]c2=O)cc1NC(=O)C1=CN(C)C(=O)C[C@H]1c1cccc(F)c1` [Compound 108, (S)-4-(3-Fluoro-phenyl)-1-methyl-6-oxo-1,4,5,6-tetrahydro-pyridine-3-carboxylic acid [5-(3,5-dioxo-4,5-dihydro-3H-[1,2,4]triazin-2-yl)-2-methyl-phenyl]-amide], which pIC50 is on record?
Answer: 7.145

Question: How did the pIC50 turn out when `Cc1ccc(-c2ccnn(C)c2=O)cc1NC(=O)C1=CNC(=O)C[C@H]1c1cccc(F)c1` [Compound 109, (S)-4-(3-Fluoro-phenyl)-6-oxo-1,4,5,6-tetrahydro-pyridine-3-carboxylic acid [2-methyl-5-(2-methyl-3-oxo-2,3-dihydro-pyridazin-4-yl)-phenyl]-amide] was run?
Answer: 8.045
